Source: patent US10940139B2, “Compounds that interact with the Ras superfamily for the treatment of cancers, inflammatory diseases, rasopathies, and fibrotic disease” (Shy Therapeutics LLC, priority 2017, dated 2021)

Tested on: MAPK phosphorylation in PANC-1 pancreatic cancer cell line
Assay: MAPK cell-based phosphorylation assay (cell-direct ELISA, EGF stimulation)
Conditions: Homo sapiens
Experimental: Cell lines: Tumor-derived pancreatic cancer cell lines PANC-1 were purchased from ATCC and were maintained according to ATCC recommendation.
Method: Cells were plated at 7500 cells/well density in 96-wells plate, starved over night, and the small molecules to be tested were added to the cells in the final concentration of 30 μM with 0.3% DMSO for 6 hours incubation at 37° C. For IC50 value determination, serial dilutions of compounds were added to cells under the same conditions. Next, cells were stimulated with 1.5 ng/ml EGF for 15 min. followed by cell fixation with 4% Formaldehyde in PBS at RT for 20 min. Phosphorylation level of MAPK was determined by Cell-direct ELISA.
Cell-direct ELISA: For each well, cells were permeabilized with PBS-Triton 0.1%, quenched with H2O2 0.6% in PBS-Triton 0.1%, and probed with anti-phospho-MAPK antibodies (R&D Systems) followed by HRP-conjugated secondary antibody (Jackson Immunoresearch, West Grove, Pa.). Next, a solution 50 μM of the fluorescent substrate AmpliFlu Red (Sigma) was added and incubated at RT for 20 min. At the end of the incubation time, fluorescence was measured at 595 nm on a microplate reader (AF2200; Eppendorf, Inc., Hamburg, Germany).

SMILES	inhibition at 30 µM [%]	IC50 [µM]
COc1cccc(C2CN(C(=O)c3csc4c(O)nc(-c5ccccn5)nc34)CCO2)c1 (stereo not shown) [drawing 1126]	1 to 25	–
O=C(c1csc2c(O)nc(-c3ccccn3)nc12)N1CCOC(c2ccc(Cl)cc2)C1 (stereo not shown) [drawing 1127]	1 to 25	–
O=C(c1csc2c(O)nc(-c3ccccn3)nc12)N1CCOC(c2cccc(F)c2)C1 (stereo not shown) [drawing 1128]	1 to 25	> 30
O=C(c1csc2c(O)nc(-c3ccccn3)nc12)N1CCOC(c2nccs2)C1 (stereo not shown) [drawing 1129]	25 to 50	> 30
O=C(c1csc2c(O)nc(-c3ccccn3)nc12)N1CCNC(c2cccc(F)c2)C1 (stereo not shown) [drawing 1130]	1 to 25	–
COCCCCNC(=O)c1csc2nc(-c3ccccn3)nc(N3CCN(C)CC3)c12 [drawing 1131]	1 to 25	–
FC(F)(F)c1csc2nc(-c3ccccn3)nc(N3CCOCC3)c12 [drawing 1132]	1 to 25	–
COc1ccnc(-c2nc(O)c3c(Br)csc3n2)c1 [drawing 1133]	76 to 100	2 to 10
O=C(c1csc2c(O)nc(-c3ccccn3)nc12)N1CCOC(c2ccc(F)cc2)C1 (stereo not shown) [drawing 1134]	1 to 25	–
CC(C)(C(=O)Nc1ccnc(-c2ccccn2)n1)c1ccc(C#N)cc1 [drawing 1135]	25 to 50	–
CC(C)(C(=O)Nc1nc(-c2ccccn2)nc2sccc12)c1ccc(C#N)cc1 [drawing 1136]	1 to 25	–
O=C(c1csc2c(O)nc(-c3ccccn3)nc12)N1CCN(c2cccc(F)c2)CC1 [drawing 1137]	1 to 25	–
O=C(c1csc2c(O)nc(-c3ccccn3)nc12)N1CCN(c2ccc(F)cc2)CC1 [drawing 1138]	1 to 25	–
N#Cc1cccc(N2CCN(C(=O)c3csc4c(O)nc(-c5ccccn5)nc34)CC2)c1 [drawing 1139]	1 to 25	–
COc1cc(OC)cc(N2CCN(C(=O)c3csc4c(O)nc(-c5ccccn5)nc34)CC2)c1 [drawing 1140]	1 to 25	–
COc1cc(N2CCN(C(=O)c3csc4c(O)nc(-c5ccccn5)nc34)CC2)cc(OC)c1OC [drawing 1141]	1 to 25	–
O=C(c1csc2c(O)nc(-c3ccccn3)nc12)N1CCN(c2ccc(F)cc2F)CC1 [drawing 1142]	1 to 25	–
CC1CN(c2ccccc2)CCN1C(=O)c1csc2c(O)nc(-c3ccccn3)nc12 (stereo not shown) [drawing 1143]	51 to 75	> 30
O=C(c1csc2c(O)nc(-c3ccccn3)nc12)N1CCN(Cc2ccccc2)CC1 [drawing 1144]	1 to 25	–

SMILES	inhibition at 30 µM [%]	IC50 [µM]
COc1cccc(CN2CCN(C(=O)c3csc4c(O)nc(-c5ccccn5)nc34)CC2)c1 [drawing 1145]	25 to 50	–
O=C(c1csc2c(O)nc(-c3ccccn3)nc12)N1CCN(Cc2ccc(O)cc2)CC1 [drawing 1146]	25 to 50	–
O=C(c1csc2c(O)nc(-c3ccccn3)nc12)N1CCN(Cc2ccc(O)c(Cl)c2)CC1 [drawing 1147]	25 to 50	–
COc1ccccc1C1CN(C(=O)c2csc3c(O)nc(-c4ccccn4)nc23)CCO1 (stereo not shown) [drawing 1148]	1 to 25	–
O=C(c1csc2c(O)nc(-c3ccccn3)nc12)N1CCOC(c2ccccc2Cl)C1 (stereo not shown) [drawing 1149]	1 to 25	–
COc1cccc(C2CN(C(=O)c3csc4c(O)nc(-c5ccccn5)nc34)CCN2)c1 (stereo not shown) [drawing 1150]	1 to 25	–
COc1ccc(C2CN(C(=O)c3csc4c(O)nc(-c5ccccn5)nc34)CCN2)cc1 (stereo not shown) [drawing 1151]	25 to 50	–
Cc1ccccc1C1CN(C(=O)c2csc3c(O)nc(-c4ccccn4)nc23)CCN1 (stereo not shown) [drawing 1152]	1 to 25	–
O=C(c1csc2c(O)nc(-c3ccccn3)nc12)N1CCNC(c2ccccc2F)C1 (stereo not shown) [drawing 1153]	1 to 25	–
O=C(c1csc2c(O)nc(-c3ccccn3)nc12)N1CCNC(Cc2ccccc2)C1 (stereo not shown) [drawing 1154]	1 to 25	–
COc1cc(CCN(C)C(=O)c2csc3nc(-c4ccccn4)nc(N4CCOCC4)c23)ccn1 [drawing 1155]	1 to 25	–
COCCCCNC(=O)c1csc2nc(-c3ccccn3)nc(N3CCOCC3)c12 [drawing 1156]	1 to 25	–
COCCN(CCOC)c1nc(-c2ccccn2)nc2scc(C(=O)NCCc3ccc(OC)nc3)c12 [drawing 1157]	1 to 25	–
CC(C(=O)Nc1ccnc(-c2ccccn2)n1)c1ccc(C#N)cc1 (stereo not shown) [drawing 1158]	1 to 25	–
COc1ccc2c(c1)CCC2C(=O)Nc1ccnc(-c2ccccn2)n1 (stereo not shown) [drawing 1159]	1 to 25	–
Cc1cnc(-c2ccccn2)nc1NC(=O)C(C)c1ccc(C#N)cc1 (stereo not shown) [drawing 1160]	1 to 25	–
N#Cc1ccc(COCC(=O)Nc2nc(-c3ccccn3)nc3sccc23)cc1 [drawing 1161]	1 to 25	–
COc1ccnc(-c2nc(O)c3c(Cl)csc3n2)c1 [drawing 1162]	1 to 25	–
COc1cnc(CN)[nH]c1=O [drawing 1163]	1 to 25	–

SMILES	inhibition at 30 µM [%]	IC50 [µM]
COc1ccc(N2CCN(C(=O)c3csc4c(O)nc(-c5ccccn5)nc34)CC2)cc1O [drawing 1164]	1 to 25	–
O=C(c1csc2c(O)nc(-c3ccccn3)nc12)N1CCN(c2ccc(O)c(Cl)c2)CC1 [drawing 1165]	1 to 25	–
CC(c1ccccc1)N1CCN(C(=O)c2csc3c(O)nc(-c4ccccn4)nc23)CC1 (stereo not shown) [drawing 1166]	1 to 25	–
O=C(c1csc2c(O)nc(-c3ccccn3)nc12)N1CCNC(c2ccc(F)cc2)C1 (stereo not shown) [drawing 1167]	1 to 25	–
O=C(NCCc1ccc(O)nc1)c1csc2nc(-c3ccccn3)nc(N3CCOCC3)c12 [drawing 1168]	1 to 25	–
O=C(NCCc1cnc(O)nc1)c1csc2nc(-c3ccccn3)nc(N3CCOCC3)c12 [drawing 1169]	25 to 50	–
CS(=O)(=O)CCCNC(=O)c1csc2nc(-c3ccccn3)nc(N3CCOCC3)c12 [drawing 1170]	25 to 50	–
COCCN(CCOC)c1nc(-c2ccccn2)nc2scc(C(=O)NCCc3cnc(O)nc3)c12 [drawing 1171]	25 to 50	–
COc1cc(COCC(=O)Nc2ccnc(-c3ccccn3)n2)ccn1 [drawing 1172]	25 to 50	–
Cc1cnc(-c2ccccn2)nc1NC(=O)Cc1ccc(C#N)cc1 [drawing 1173]	51 to 75	–
Cc1cnc(-c2ccccn2)nc1NC(=O)COCc1ccc(C#N)cc1 [drawing 1174]	1 to 25	–
Cc1cnc(-c2ccccn2)nc1NC(=O)COCc1ccnc(O)c1 [drawing 1175]	25 to 50	–
N#Cc1ccc(CC(=O)Nc2nc(-c3ccccn3)nc3sccc23)cc1 [drawing 1176]	76 to 100	–
COc1ccc2c(c1)CCC2C(=O)Nc1nc(-c2ccccn2)nc2sccc12 (stereo not shown) [drawing 1177]	1 to 25	–
N#Cc1csc2nc(-c3ccccn3)nc(N3CCOCC3)c12 [drawing 1178]	1 to 25	–
COc1cc(N2CCN(C(=O)c3csc4c(O)nc(-c5ccccn5)nc34)CC2)ccc1O [drawing 1179]	25 to 50	–
Nc1nc(-c2ccccn2)nc2sccc12 [drawing 1180]	1 to 25	–
Nc1nc(-c2ccccn2)nc2scc(-c3ccccc3)c12 [drawing 1181]	1 to 25	–
COC(=O)c1csc2c(O)nc(-c3ccccn3)nc12 [drawing 1182]	25 to 50	–
